This test has as its target T1, Stl1 (Saccharomyces cerevisiae, UniProt P39932).
T1 sequence (P39932 1-569): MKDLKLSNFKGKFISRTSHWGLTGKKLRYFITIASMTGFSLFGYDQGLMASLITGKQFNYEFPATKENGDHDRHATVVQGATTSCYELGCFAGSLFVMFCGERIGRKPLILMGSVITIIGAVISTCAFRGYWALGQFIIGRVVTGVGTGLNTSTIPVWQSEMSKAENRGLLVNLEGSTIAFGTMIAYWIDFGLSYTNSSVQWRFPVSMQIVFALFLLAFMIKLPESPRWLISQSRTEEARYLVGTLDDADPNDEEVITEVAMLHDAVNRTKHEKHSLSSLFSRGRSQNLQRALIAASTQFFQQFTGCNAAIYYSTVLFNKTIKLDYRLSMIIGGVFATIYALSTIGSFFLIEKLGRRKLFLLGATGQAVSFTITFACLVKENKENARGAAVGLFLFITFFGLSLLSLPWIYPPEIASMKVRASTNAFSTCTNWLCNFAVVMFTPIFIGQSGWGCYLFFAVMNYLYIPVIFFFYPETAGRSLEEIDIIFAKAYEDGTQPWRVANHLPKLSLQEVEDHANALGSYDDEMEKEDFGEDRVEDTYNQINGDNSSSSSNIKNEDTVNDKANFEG
As to the kind of experiment: […]-glycerol accumulation in S. cerevisiae. The note with it: labelled compound; 1 mM, Tris/citrate pH 5.0, 30 °C. The class given is cell-based.

Structures are written as SMILES.

Regarding `OCC(O)CO` [glycerol], the “14C-glycerol accumulation in S. cerevisiae” value is “higher uptake rate of glycerol by the Stl1 transporter compared with the HGT-1 transporter”.

The values are drawn from article PMC6431176 (Proceedings of the National Academy of Sciences of the …, 2019).
